Experiment: Hair Switch Frizz Assessment by ten expert graders
Details: for Results of Hair Switch Rating (frizz protection, clean feel, greasy feel) in words: aqueous compositions, Tables 3 and 4, 1% material; for Results of Hair Switch Rating (frizz protection, clean, smooth, greasy feel) in words: non-aqueous compositions, Tables 9 and 10, 1% material
Description: The leave-on treatment compositions are prepared by adding the Moisture Control Materials and perfume, if needed, into a 50:50 ethanol/water carrier and stirred until complete dissolution. The solution pH is adjusted using sodium hydroxide (50% w/w) to a final pH of 4.0-4.2. […] Method of Making Non-Aqueous Leave-on Treatment Compositions The non-aqueous leave-on treatment compositions are prepared by adding the Moisture Control Materials and perfume, if needed, into a mixture of Dimethiconol/Dimethicone and Cyclopentasiloxane/Isododecane and stirred until complete dissolution. Additionally, propylene glycol is added to aid in dissolution of moisture control materials at high levels of dimethicone. […] Method of Making of Non-Aqueous Leave-on Treatment Composition in a Solid Form The leave-on treatment composition in solid form is prepared by mixing together two different compositions. A premix and main-mix. […] In-Use Product Feel Assessment on Hair Switch Ten expert graders are asked to apply formulation on hair and rate each formulation based on a 5 point scale for in-use feel assessment, 5 being the highest (best feel) and 1 being the lowest rating. Method of Determining Stability of the Compositions Leave-on compositions are kept at 40° C. at 60% RH to visually assess any precipitation on day 1 and after a week of storage at these conditions.
Then, ten experts are asked to rate each hair switch in terms of frizz, clean feel, and greasy feel, based on a 5 point scale, 5 being the highest and 1 being the lowest rating.
Then, ten experts are asked to rate each hair switch in terms of frizz, clean feel, smooth feel and greasy feel, based on a 5 point scale, 5 being the highest and 1 being the lowest rating.

Row | SMILES | Results of Hair Switch Rating (frizz protection, clean feel, greasy feel) in words | Results of Hair Switch Rating (frizz protection, clean, smooth, greasy feel) in words
1 | CCCCCCCCC(CO)CCCCCC (centres unmarked) [2-Hexyl-1-decanol] | provide frizz protection with clean feel and without greasy feel negative | provide frizz protection with clean, smooth feel and without greasy feel negative
2 | CC(C)CCCCCCCCCCCCCCCOC(=O)CCCCCCCCCCCCCCC(C)C [Isostearyl isostearate] | provide frizz protection with clean feel and without greasy feel negative | provide frizz protection with clean, smooth feel and without greasy feel negative
3 | O=C(O)c1ccccc1O [Salicylic acid] | provide frizz protection with clean feel and without greasy feel negative | provide frizz protection with clean and smooth feel and without greasy feel negative
4 | O=C(OCCO)c1ccccc1O [2-Hydroxyethyl salicylate] | provide frizz protection with clean feel and without greasy feel negative | provide frizz protection with clean, smooth feel and without greasy feel negative
5 | O=S(=O)(O)c1ccc(O)cc1 [4-Hydroxybenzenesulphonic acid] | provide frizz protection with clean feel and without greasy feel negative | provide frizz protection with clean and smooth feel and without greasy feel negative
6 | O=C(O)c1cc(Cl)ccc1O [5-Chlorosalicylic acid] | provide frizz protection with clean feel and without greasy feel negative | provide frizz protection with clean and smooth feel and without greasy feel negative
7 | O=C(O)c1ccc(O)cc1O [2,4-Dihydroxybenzoic acid] | provide frizz protection with clean feel and without greasy feel negative | provide frizz protection with clean and smooth feel and without greasy feel negative

From patent publication US10980723B2, “Non-aqueous composition for hair frizz reduction” (The Procter & Gamble Company, priority 2017, dated 2021)
